Measurements published in patent US9216998B2, “Tricyclic indole derivatives useful endothelial lipase inhibitors” (Janssen Pharmaceutica, NV, priority 2012, dated 2015).
pIC50: −log10 of the molar value.

What was measured:
[1] = biological target: human endothelial lipase (EL) (Homo sapiens (Human), UniProt Q9Y5X9); test: Endothelial lipase assay, cell surface lipase activity (human EL); assay type: cell-based; details: cells expressing human EL, PLA1 substrate 10 μM, fluorescence rate
Description: (§1) To assay for cell surface lipase activity, cells expressing human endothelial lipase (EL) or LPL were plated in CellBIND® 384-well plates (Corning, Lowell, Mass.) in 25 μL serum free medium at a density of 2000 cells/well. After 18-24 hours incubation at 37° C., the medium was removed and replaced with 15 μL assay buffer [Hank's Buffered Saline Solution with 25 mM HEPES pH 7.2] and 15 μL PLA1 substrate for a final concentration of 10 μM using a Multidrop reagent dispenser. Fluorescence signal was monitored for 30 min at 37° C. on a Safire II plate reader in kinetic mode (60 cycles, kinetic interval: 30 seconds) with an excitation wavelength of 490 nm and an emission wavelength of 515 nm. […] The amount of BODIPY-labeled product generated was calculated at the 30 min time point as determined from standard curve analysis of purified BODIPY FL C5.

Mouse EL = Mouse EL (Mus musculus (Mouse), UniProt Q9WVG5); test: Endothelial lipase assay, cell surface lipase activity (mouse EL); assay type: cell-based; details: PLA1 substrate 10 μM, fluorescence rate
Chain of Mouse EL (Q9WVG5 21-500): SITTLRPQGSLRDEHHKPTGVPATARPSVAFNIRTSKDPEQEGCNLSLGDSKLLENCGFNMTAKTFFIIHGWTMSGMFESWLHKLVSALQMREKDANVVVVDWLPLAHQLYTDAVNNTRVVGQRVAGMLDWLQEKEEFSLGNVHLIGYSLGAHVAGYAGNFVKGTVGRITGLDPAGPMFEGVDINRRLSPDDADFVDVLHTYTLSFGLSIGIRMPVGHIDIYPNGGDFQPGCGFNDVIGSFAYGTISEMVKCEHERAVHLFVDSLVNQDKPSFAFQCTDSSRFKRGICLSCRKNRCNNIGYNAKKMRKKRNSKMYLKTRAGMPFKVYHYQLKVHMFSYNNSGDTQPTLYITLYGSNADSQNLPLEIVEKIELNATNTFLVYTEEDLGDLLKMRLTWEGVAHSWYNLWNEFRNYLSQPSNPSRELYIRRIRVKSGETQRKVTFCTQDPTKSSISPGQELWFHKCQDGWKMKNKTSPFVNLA
Description: [The source words this procedure for another species and reports this species under the same test.] as §1

Chain of human endothelial lipase (EL) (Q9Y5X9 21-500): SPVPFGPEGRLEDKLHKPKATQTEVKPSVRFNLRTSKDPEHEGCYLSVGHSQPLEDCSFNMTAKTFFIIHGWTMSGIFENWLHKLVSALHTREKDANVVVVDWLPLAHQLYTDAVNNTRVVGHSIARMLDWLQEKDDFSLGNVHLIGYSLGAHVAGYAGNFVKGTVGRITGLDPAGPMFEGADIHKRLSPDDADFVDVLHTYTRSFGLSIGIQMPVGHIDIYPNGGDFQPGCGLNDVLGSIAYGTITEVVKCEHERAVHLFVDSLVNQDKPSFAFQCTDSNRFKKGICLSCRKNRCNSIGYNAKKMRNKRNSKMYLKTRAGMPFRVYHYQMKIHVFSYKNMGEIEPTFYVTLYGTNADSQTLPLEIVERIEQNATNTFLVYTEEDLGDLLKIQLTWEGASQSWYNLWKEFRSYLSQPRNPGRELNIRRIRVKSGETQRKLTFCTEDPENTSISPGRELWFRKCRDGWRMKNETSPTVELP

SMILES	pIC50 [1]	pIC50 (Mouse EL)
FC(F)(F)c1c(CCCc2ccccc2)n2c3c(cccc13)OCC2 [Compound 26]	6.38	6.21
O=C(Nc1ccccc1)N1CCn2c(CCc3ccccc3)c(C(F)(F)F)c3cccc(c32)C1 [Compound 14, 6-phenethyl-N-phenyl-7-(trifluoromethyl)-3,4-dihydro-[1,4]diazepino[6,7,1-hi]indole-2(1H)-carboxamide]	6.77	6.79
FC(F)(F)c1c(CCCOc2ccccc2)n2c3c(cccc13)OCC2 [Compound 27]	7.09	6.97
FC(F)(F)c1c(CCc2ccccc2)n2c3c(cccc13)OCC2 [Compound 25, 5-phenethyl-6-(trifluoromethyl)-2,3-dihydro-[1,4]oxazino[2,3,4-hi]indole]	7.41	7.51
FC(F)(F)c1c(CCCc2ccccc2)n2c3c(cccc13)CCC2 [Compound 4]	6.84	6.69
FC(F)(F)c1c(CCc2ccccc2)n2c3c(cccc13)CCCC2 [Compound 9, 2-phenethyl-1-(trifluoromethyl)-4,5,6,7-tetrahydroazepino[3,2,1-hi]indole]	7.37	7.44
Oc1cc2c3c(c1)c(C(F)(F)F)c(CCc1ccccc1)n3CCC2 [Compound 6]	7.15	6.87
FC(F)(F)c1c(CCCc2ccccc2)n2c3c(cccc13)CCCC2 [Compound 11]	6.44	5.92
FC(F)(F)c1c(CCCc2ccccc2)n2c3c(cccc13)SCC2 [Compound 28]	4.48	4.48
FC(F)(F)c1c(Cc2ccccc2)n2c3c(cccc13)CCC2 [Compound 3]	6.94	7.02
FC(F)(F)c1c(CCc2ccccc2)n2c3c(cccc13)CNCC2 [Compound 15, 6-phenethyl-7-(trifluoromethyl)-1,2,3,4-tetrahydro-[1,4]diazepino[6,7,1-hi]indole]	6.16	6.17
FC(F)(F)c1c(CCCc2ccccc2)n2c3c(cccc13)CC2 [Compound 1]	6.73	6.71
COc1cc2c3c(c1)c(C(F)(F)F)c(CCc1ccccc1)n3CCC2 [Compound 5]	7.85	7.77

Other lines, results leading:

pIC50 [1]	pIC50 (Mouse EL)	SMILES
6.02	6.00	CN(C)CC(=O)N1CCn2c(CCc3ccccc3)c(C(F)(F)F)c3cccc(c32)C1 [Compound 16, 2-(dimethylamino)-1-(6-phenethyl-7-(trifluoromethyl)-3,4-dihydro-[1,4]diazepino[6,7,1-hi]indol-2(1H)-yl)ethanone]
6.73	6.47	CS(=O)(=O)N1CCn2c(CCc3ccccc3)c(C(F)(F)F)c3cccc(c32)C1 [Compound 24, 2-(methylsulfonyl)-6-phenethyl-7-(trifluoromethyl)-1,2,3,4-tetrahydro-[1,4]diazepino[6,7,1-hi]indole]
6.87	6.88	CC(C)NC(=O)N1CCn2c(CCc3ccccc3)c(C(F)(F)F)c3cccc(c32)C1 [Compound 12, N-isopropyl-6-phenethyl-7-(trifluoromethyl)-3,4-dihydro-[1,4]diazepino[6,7,1-hi]indole-2(1H)-carboxamide]
6.82	6.91	CC(C)(C)OC(=O)N1CCn2c(CCc3ccccc3)c(C(F)(F)F)c3cccc(c32)C1 [Compound 13, tert-butyl 6-phenethyl-7-(trifluoromethyl)-3,4-dihydro-[1,4]diazepino[6,7,1-hi]indole-2(1H)-carboxylate]
6.35	6.32	CC(=O)OCC(=O)N1CCn2c(CCc3ccccc3)c(C(F)(F)F)c3cccc(c32)C1 [Compound 20, 2-oxo-2-(6-phenethyl-7-(trifluoromethyl)-3,4-dihydro-[1,4]diazepino[6,7,1-hi]indol-2(1H)-yl)ethyl acetate]
7.66	7.32	FC(F)(F)c1c(CCc2ccccc2)n2c3c(cccc13)CCC2 [Compound 2, 2-Phenethyl-1-(trifluoromethyl)-5,6-dihydro-4H-pyrrolo[3,2,1-ij]quinoline, reference compound]
6.55	6.46	OCCN1CCn2c(CCc3ccccc3)c(C(F)(F)F)c3cccc(c32)C1 [Compound 23, 2-(6-phenethyl-7-(trifluoromethyl)-3,4-dihydro-[1,4]diazepino[6,7,1-hi]indol-2(1H)-yl)ethanol]
5.32	5.44	N=C(N)N1CCn2c(CCc3ccccc3)c(C(F)(F)F)c3cccc(c32)C1 [Compound 17, 6-phenethyl-7-(trifluoromethyl)-3,4-dihydro-[1,4]diazepino[6,7,1-hi]indole-2(1H)-carboximidamide]
6.59	6.63	O=C(CC(F)(F)F)N1CCn2c(CCc3ccccc3)c(C(F)(F)F)c3cccc(c32)C1 [Compound 21, 3,3,3-trifluoro-1-(6-phenethyl-7-(trifluoromethyl)-3,4-dihydro-[1,4]diazepino[6,7,1-hi]indol-2(1H)-yl)propan-1-one]
5.70	5.72	NCC(=O)N1CCn2c(CCc3ccccc3)c(C(F)(F)F)c3cccc(c32)C1 [Compound 18, 2-amino-1-(6-phenethyl-7-(trifluoromethyl)-3,4-dihydro-[1,4]diazepino[6,7,1-hi]indol-2(1H)-yl)ethanone]
